This is an account of results in US12419878B2, “Sustained release local anesthetic hydrogel composition” (THE GOVERNING COUNCIL OF THE UNIVERSITY OF TORONTO, priority 2019, dated 2025).

A short description of the data set: Plasma pharmacokinetics of ropivacaine in sciatic nerve blockade model. In kind it is in vivo, Sprague-Dawley rats. The text has this:
Male Sprague-Dawley rats, approximately 400-500 g in weight, were anesthetized with 3-5% isoflurane and maintained as required. The left hind leg was shaved, cleaned twice with iodine and 70% ethanol, and a sterile drape placed over the animal to create a sterile field. An incision was made in the skin and the sciatic nerve exposed using a blunt dissection. The treatment was applied, the muscle and incision closed with sutures, and animals allowed to recover under a heat lamp. Controls were injected with vehicle only (i.e. HAMC) or ropivacaine in solution.
Blood samples were taken from the tail veins and quantified using mass-spectrometry. All extractions and mass-spectrometry was carried out by the Analytical Facility for Bioactive Molecules (The Hospital for Sick Children, Toronto, Canada).
To gain insight into the pharmacokinetics of ropivacaine released from HAMC, the sciatic nerve block procedure was performed as described. Animals were treated with ropivacaine-loaded 1.4:3 HAMC at doses of 30, 60, 90 or 120 mg/kg of particulate ropivacaine (<100 μm). Control animals received HAMC alone or ropivacaine in solution at 24 mg/kg. Each animal received approximately 400 μL of treatment. For the HAMC groups, blood was sampled by tail vein puncture at 2 h, 4 h, 6 h, 12 h, 20 h, 30 h, 48 h and 72 h. […]
All statistical analyses were performed using GraphPad Prism (GraphPad Software 6, San Diego, CA, USA). Differences among 4 groups were assessed by one-way ANOVA followed by either Dunnett's or Tukey's multiple comparisons test to identify statistical significance. […] The area under the curve (AUC) was calculated for each HAMC-ropivacaine pharmacokinetic profile, and the subsequent AUC vs HAMC-ropivacaine relationship was fit to a linear regression.
A pharmacokinetics study was performed to evaluate the systemic plasma distribution of ropivacaine when delivered either from HAMC or as bolus liquid solution. […] Blood was sampled by tail vein puncture over time, and the amount of ropivacaine was quantified by LC-MS/MS.

Setting [1] is: Sprague-Dawley, rat, plasma, 24 mg/kg at left sciatic nerve, male rats.

Structures can show the parent of a compound that is named as a salt.

Consider `CCCN1CCCC[C@H]1C(=O)Nc1c(C)cccc1C` [ropivacaine solution, ropivacaine·HCl], for which the plasma levels result (24 mg/kg, by 24 h) is given as “negligible plasma levels”. Under setting [1], the highest concentration (Cmax) (commonly the peak of the concentration-time curve) is 1000 ng/mL and the time of peak concentration (Tmax) – broadly, the time at which the peak concentration occurs – came to 1 h.
